This passage reports IC50 results from patent publication US20250101028A1, “HETEROCYCLIC COMPOUNDS, COMPOSITIONS THEREOF, AND METHODS OF TREATMENT THEREWITH” (BeiGene, Ltd., priority 2022, published 2025).

The target in assay [1] is T1, GST-tagged GDP-loaded KRAS G12V (amino acids 1-169) (Homo sapiens, UniProt P01116, G12V).
T1 construct: GST-tagged GDP-loaded KRAS G12V (amino acids 1-169); made in house; host or cells: E. coli
Nature of the assay: KRAS G12V probe displacement assay (TR-FRET). It counts as binding. Conditions: displacement of biotinylated probe 2 from GDP-loaded KRAS G12V. In outline:
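GST-tagged GDP-loaded KRAS 1-169 (WT 3 nM; G12V 2 nM final) preincubated 1 h at 24 °C with serially diluted compound in HEPES pH 7.5 buffer, then biotinylated probe added (probe 1 60 nM for WT; probe 2 2.5 nM for G12V), 1 h. Anti-GST-Tb/streptavidin-XL665 TR-FRET 665/620 ratio; IC50 by four-parameter fit.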

In assay [2] the target is T2, GST-tagged GDP-loaded KRAS G12D (amin acids 1-188) (Homo sapiens, UniProt P01116, G12D).
T2 construct: GST-tagged GDP-loaded KRAS G12D (amin acids 1-188); made in house; host or cells: E. coli
In words: KRAS G12D probe displacement assay (TR-FRET). It counts as binding. Conditions: displacement of biotinylated probe 2 from GDP-loaded KRAS G12D. Here is the method:
KRAS WT and KRAS G12D Probe Displacement Assay
This assay was used to identify compounds which bind to GDP-loaded KRAS protein and are able to displace a biotinylated probe occupying the KRAS binding site. GST-tagged GDP-loaded WT KRAS (amino acids 1-188) and GST-tagged GDP-loaded KRAS G12D (amin acids 1-188) were expressed in E. coli and purified in house. All protein and reaction solutions were prepared in assay buffer containing 50 mM HEPES pH7.5, 50 mM NaCl, 1 mM MgCl2, 1 mM TCEP, 0.01% BSA, and 0.008% Brij-35. Purified WT KRAS (3 nM final concentration) or KRAS G12D protein (0.5 nM final concentration) was incubated with a 3-fold serially diluted compound in the assay plate (384 well microplate, black, Corning). Plates are incubated at 24° C. for 1 hr. Following the incubation, biotinylated probe 1 (60 nM final assay concentration) for WT KRAS and biotinylated probe 2 (4 nM final assay concentration) for KRAS G12D was added to the assay plate, respectively. After 1 hr incubation at 24° C., Mab Anti-GST-Tb cryptate (Cisbio) and Streptavidin-XL665 (Cisbio) were added and further incubated at 24° C. for another 1 hr. The TR-FRET signals (ex337 nm, em665 nm/620 nm) were read on BMG PHERAstar FSX instrument. The inhibition percentage of KRAS protein binding with biotinylated probe in presence of increasing concentrations of compounds was calculated based on the ratio of fluorescence at 665 nm to that at 620 nm. The IC50 value of each compound was calculated from fitting the data to the four-parameter logistic model by Dotmatics.
Background: TR-FRET usually uses a lanthanide donor and a delayed reading to cut background.

The test system of assay [3] is pERK1/2(THR202/TYR204) level, SW620 cell line. Nature of the assay: KRAS G12V pERK assay (HTRF). It is filed as cell-based. To be noted: Homo sapiens, SW-620; SW620 cells, 2 hrs compound treatment. The protocol: (§1) SW620 cell line was used in this study. Cells were maintained in RPMI 1640 supplemented with 10% fetal bovine serum (Thermo Fisher), 50 units/mL penicillin and streptomycin (Thermo Fisher) and kept at 37° C. in a humidified atmosphere of 5% CO2 in air. Cells were reinstated from frozen stocks that were laid down within 30 passages from the original cells purchased. 40000 cells per well were seeded into a 96-well plate and incubated overnight. Cells were treated with a 10-point dilution series. The final compound concentration is from 0 to 10 M. After 2 hrs compound treatment, cells were lysed, and the pERK1/2(THR202/TYR204) level in the cell lysates was detected by HTRF kit (Cisbio). In brief, a total of 16 μL of cell lysate from each well of a 96-well plate was transferred to a 384-well white assay plate. Lysate from each well was incubated with 2 μL of Eu3+− cryptate (donor) labeled anti-phospho-ERK1/2 and 2 μL of D2 (acceptor) labeled anti-phospho-ERK1/2 antibodies (Cisbio) overnight in dark at room temperature. When donor and acceptor are in close proximity, excitation of the donor with laser triggers a Fluorescence Resonance Energy Transfer (FRET) towards the acceptor, which in turn fluoresces at 655 nm wavelength. FRET signals were measured using a PHERAstar FSX reader (BMG Labtech). IC50 determination was performed by fitting the curve of percent inhibition versus the log of the inhibitor concentration using Dotmatics.

Assay [4] concerns pERK1/2(THR202/TYR204) level, AsPC-1 cell line. Nature of the assay: KRAS G12D pERK assay (HTRF). Conditions: Homo sapiens, ASPC1; AsPC-1 cells, 2 h compound treatment. It counts as cell-based. The protocol:
as §1, with “AsPC-1” for “SW620”, “RPMI-1640” for “RPMI 1640”, “30000” for “40000”, “μM.” for “M.”, “h” for “hrs”

T1 sequence (P01116 1-169 isoform P01116-2 G12V): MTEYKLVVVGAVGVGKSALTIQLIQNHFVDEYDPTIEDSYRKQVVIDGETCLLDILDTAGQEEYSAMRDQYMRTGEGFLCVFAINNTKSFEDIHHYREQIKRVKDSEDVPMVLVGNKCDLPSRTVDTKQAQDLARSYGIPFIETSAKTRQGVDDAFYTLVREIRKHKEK
T2 sequence (P01116 1-188 isoform P01116-2 G12D): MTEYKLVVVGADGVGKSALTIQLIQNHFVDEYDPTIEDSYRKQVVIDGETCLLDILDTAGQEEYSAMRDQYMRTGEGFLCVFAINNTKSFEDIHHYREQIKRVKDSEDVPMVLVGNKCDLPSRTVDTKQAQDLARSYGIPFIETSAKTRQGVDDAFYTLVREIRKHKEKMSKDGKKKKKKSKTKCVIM

As to `N#CC1CCN(c2nc(OC[C@@]34CCCN3C[C@H](F)C4)nc3c(F)c(-c4ccc(F)c5sc(N)nc45)c(C(F)(F)F)cc23)CC1` [Example 68, 1-(7-(2-amino-7-fluorobenzo[d]thiazol-4-yl)-8-fluoro-2-(((2R,7aS)-2-fluorotetrahydro-1H-pyrrolizin-7a(5H)-yl)methoxy)-6-(trifluoromethyl)quinazolin-4-yl)piperidine-4-carbonitrile], the IC50 was 0.77 nM in assay [1], 6.6 nM in assay [2], 76 nM in assay [3] and 686 nM in assay [4].
The like results for `C[C@@H]1C[C@@H](C#N)CCN1c1nc(OC[C@@]23CCCN2C[C@H](F)C3)nc2c(F)c(-c3ccc(F)c4sc(N)c(C#N)c34)c(C(F)(F)F)cc12` [Example 100, (2R,4S)-1-(7-(2-amino-3-cyano-7-fluorobenzo[b]thiophen-4-yl)-8-fluoro-2-(((2R,7aS)-2-fluorotetrahydro-1H-pyrrolizin-7a(5H)-yl)methoxy)-6-(trifluoromethyl)quinazolin-4-yl)-2-methylpiperidine-4-carbonitrile] were, in that order, 0.74 nM, 0.34 nM, 18 nM and 56 nM.
The like results for `Nc1nc2c(-c3c(C(F)(F)F)cc4c(NC5CC5)nc(OC[C@@]56CCCN5C[C@H](F)C6)nc4c3F)ccc(F)c2s1` [Example 1, 4-(4-(cyclopropylamino)-8-fluoro-2-(((2R,7aS)-2-fluorotetrahydro-1H-pyrrolizin-7a(5H)-yl)methoxy)-6-(trifluoromethyl)quinazolin-7-yl)-7-fluorobenzo[d]thiazol-2-amine] were, in that order, 4.2 nM, 22 nM, 129 nM and 2460 nM.
`C[C@@]1(O)CCCN(c2nc(OC[C@@]34CCCN3C[C@H](F)C4)nc3c(F)c(-c4cc(N)cc(Cl)c4C(F)(F)F)ncc23)C1` [Example 128, (R)-1-(7-(5-amino-3-chloro-2-(trifluoromethyl)phenyl)-8-fluoro-2-(((2R,7aS)-2-fluorotetrahydro-1H-pyrrolizin-7a(5H)-yl)methoxy)pyrido[4,3-d]pyrimidin-4-yl)-3-methylpiperidin-3-ol]: the IC50 was determined as 2.6 nM in assay [1], 1.2 nM in assay [2], 84 nM in assay [3] and 76 nM in assay [4].
Consider `Nc1nc2c(-c3c(C(F)(F)F)cc4c(N5CCC6(CC5)CNC(=O)O6)nc(OC[C@@]56CCCN5C[C@H](F)C6)nc4c3F)ccc(F)c2s1` [Example 86, 8-(7-(2-amino-7-fluorobenzo[d]thiazol-4-yl)-8-fluoro-2-(((2R,7aS)-2-fluorotetrahydro-1H-pyrrolizin-7a(5H)-yl)methoxy)-6-(trifluoromethyl)quinazolin-4-yl)-1-oxa-3,8-diazaspiro[4.5]decan-2-one], for which the IC50 in assay [1] was determined as 0.8 nM; in assay [2], 23 nM; in assay [3], 715 nM; in assay [4], 5440 nM.
Consider `Nc1nc2c(-c3c(C(F)(F)F)cc4c(N5CC(F)C5)nc(OC[C@@]56CCCN5C[C@H](F)C6)nc4c3F)ccc(F)c2s1` [Example 37, 7-fluoro-4-(8-fluoro-4-(3-fluoroazetidin-1-yl)-2-(((2R,7aS)-2-fluorotetrahydro-1H-pyrrolizin-7a(5H)-yl)methoxy)-6-(trifluoromethyl)quinazolin-7-yl)benzo[d]thiazol-2-amine], for which the results for the IC50 in assay [1] and in assay [3] were 6 nM and 449 nM, respectively.
For the compound `N#CC1CN(c2nc(OC[C@@]34CCCN3C[C@H](F)C4)nc3c(F)c(-c4ccc(F)c5sc(N)nc45)c(C(F)(F)F)cc23)C1` [Example 39, 1-(7-(2-amino-7-fluorobenzo[d]thiazol-4-yl)-8-fluoro-2-(((2R,7aS)-2-fluorotetrahydro-1H-pyrrolizin-7a(5H)-yl)methoxy)-6-(trifluoromethyl)quinazolin-4-yl)azetidine-3-carbonitrile], the IC50 in assay [1] came out at 5.5 nM; in assay [3], 410 nM.
The like results for `N#CC1CCN(c2nc(OC[C@@]34CCCN3C[C@H](F)C4)nc3c(F)c(-c4ccc(F)c5sc(N)nc45)c(C(F)(F)F)cc23)C1` (stereo partly drawn) [Example 60, 1-(7-(2-amino-7-fluorobenzo[d]thiazol-4-yl)-8-fluoro-2-(((2R,7aS)-2-fluorotetrahydro-1H-pyrrolizin-7a(5H)-yl)methoxy)-6-(trifluoromethyl)quinazolin-4-yl)pyrrolidine-3-carbonitrile] were, in that order, 2.1 nM and 413 nM.

A word on the IC50: it is the concentration that gives 50% inhibition. High values mean lower potency, low ones higher potency.
